Read-outs that look alike come from different tables or passages of the source.
How the values were obtained:
MDR1 (Pgp) and BCRP = assay: Blood brain barrier penetrant assessment: efflux ratio in MDCK_MDR1_BCRP cells; assay type: in vitro ADME; conditions: human, MDCK cells doubly transfected with MDR1 (Pgp) and BCRP, ratio of 2 or less = potential for good BBB penetration, read-out: Hu MDCK-MDR1-BCRP (0.1 uM) Mean Efflux Ratio
Protocol: In order to evaluate blood brain barrier (BBB) penetrant properties the efflux properties of compounds according to the specification was measured in cells transfected with the major efflux pumps expressed in the endothelial cells of the BBB. The assessment of efflux properties was performed using Madin-Darby Canine Kidney (MDCK) cells doubly transfected with MDR1 (Pgp) and BCRP. The transfected cell line, MDCK_MDR1_BCRP, thus expresses the two main efflux pumps that actively serve to exclude transit of compounds across the BBB and the efflux ration from these cell can be measured as described in the literature (Durant et al, Sci. Adv. 2018; eeat:1719). A compound that has an efflux ratio of 2 or less as measured by this technique is identified as having the potential for good BBB penetrant properties (Colclough et al, Drug Disc. Today 2019; 24(5), 1067-73).

KRasG12C = molecular target: T1, KRasG12C (Homo sapiens, UniProt P01116, G12C); assay: KRasG12C functional assay (HTRF/FRET nucleotide exchange and Raf RBD binding); assay type: biochemical; conditions: samples incubated for 4 hrs, FRET readout, single experiment or average of two or more
T1 construct: biotin (biotinylated); made in house
Protocol: All enzyme and substrate solutions were prepared in assay buffer containing 20 mM HEPES (pH 7.5), 5 mM MgCl2, 150 mM NaCl, and 0.01% Tween 20. […] In a separate mix 20 nM GST-Raf Ras binding domain (GST-Raf RBD, purified in house) and 4 μg/ml anti-GST XL665 antibody (Cisbio) was prepared in assay buffer containing 50 mM Potassium Fluoride and 0.05 mg/ml BSA and equilibrated for 4 hours before adding 0.6 μM Guanosine 5′-[γ-thio]triphosphate (GTPγS, Sigma) and 0.08 μM SOS (purified in house). 5 μl of the GST-RAF RBD mix was then dispensed into each well of the assay plate. […] This is detected simultaneously via the specific binding interaction between active GTPγS KRas^G12C with GST-Raf RBD which brings the europium and XL665 into close proximity enabling an increased FRET signal to be detected on a Pherastar (BMG) plate reader equipped with the HTRF filter module. […] IC50 values were calculated from normalised dose-response response FRET data curve fitted in Genedata screener (Basel, Switzerland).

[1] = GDP loaded biotinylated KRasG12C, read-out: KRasG12C functional assay IC50
[2] = KRasG12C functional assay IC50, GDP loaded biotinylated KRasG12C

T1 sequence (P01116 1-188 isoform P01116-2 G12C): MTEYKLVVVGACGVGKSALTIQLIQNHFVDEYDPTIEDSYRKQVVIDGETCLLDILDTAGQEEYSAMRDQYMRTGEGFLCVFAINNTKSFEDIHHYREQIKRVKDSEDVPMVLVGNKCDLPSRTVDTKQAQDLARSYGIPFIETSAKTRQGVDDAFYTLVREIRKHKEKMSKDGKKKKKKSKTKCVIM

Row | Structure (SMILES) | efflux ratio at 0.1 uM (MDR1 (Pgp) and BCRP) | IC50 (KRasG12C; [1]) [nM] | IC50 (KRasG12C; [2]) [nM]
1 | C=CC(=O)N1CCN2C(=O)c3cc(F)c(-c4c(O)cccc4F)c(Cl)c3OC[C@H]2C1 (single isomer, unassigned) [Example 11] | 0.5 | 67 | 
2 | C=CC(=O)N1CCN2Cc3cc(F)c(-c4c(O)cccc4C(F)(F)F)c(F)c3OC[C@H]2C1 (single isomer, unassigned) [Example 49] | 0.9 | 65 | 
3 | C=CC(=O)N1CCN2Cc3cc(F)c(-c4c(O)cccc4C(F)F)c(F)c3OC[C@H]2C1 (single isomer, unassigned) [Example 53] | 1.5 | 660 | 
4 | C#Cc1c2c(cc(F)c1-c1c(C)cccc1O)CN1CCN(C(=O)C=C)C[C@@H]1CO2 (single isomer, unassigned) [Example 65] | 1.4 | 182 | 
5 | C=CC(=O)N1CCN2Cc3c(c(Cl)c(-c4c(O)cccc4Cl)c4ncn(C)c34)OC[C@H]2C1 (single isomer, unassigned) [Example 82] |  | 61 | 
6 | C#Cc1nc2c(c(Cl)c1-c1c(O)cccc1Cl)OC[C@@H]1CN(C(=O)C=C)CCN1C2 (single isomer, unassigned) [Example 88] |  | 13 | 
7 | C#Cc1c(F)c2c(c(F)c1-c1c(O)cccc1Cl)OC[C@H]1CN(C(=O)C=C)CCN1C2 (single isomer, unassigned) [Example 95] | 0.9 | 19 | 
8 | C=CC(=O)N1CCN2Cc3cc(OCc4ccncc4)c(-c4c(O)cccc4Cl)c(F)c3OC[C@H]2C1 (single isomer, unassigned) [Example 104] |  | 27 | 
9 | C=CC(=O)N1CCN2Cc3cc(OCCOC)c(-c4c(O)cccc4Cl)c(Cl)c3OC[C@H]2C1 (single isomer, unassigned) [Example 106] |  | 43 | 
10 | C=CC(=O)N1CCN2Cc3cc(OCCN4CCCCC4)c(-c4c(O)cccc4Cl)c(F)c3OC[C@H]2C1 (single isomer, unassigned) [Example 108] |  | 64 | 
11 | C=CC(=O)N1CCN2Cc3c(OCCN(C)C)cc(-c4c(O)cccc4Cl)c(F)c3OC[C@H]2C1 (single isomer, unassigned) [Example 115] |  | 55 | 
12 | C=CC(=O)N1CCN2Cc3c(OCCN(C)C)cc(-c4c(O)cccc4Cl)c(F)c3OC[C@H]2C1 (single isomer, unassigned) [Example 116] |  | 53 | 
13 | C=CC(=O)N1CCN2Cc3c(C#CC)nc(-c4c(O)cccc4Cl)c(Cl)c3OC[C@H]2C1 (single isomer, unassigned) [Example 118] |  | 30 | 
14 | C#Cc1nc(-c2c(O)cccc2Cl)c(Cl)c2c1CN1CCN(C(=O)C=C)C[C@@H]1CO2 (single isomer, unassigned) [Example 120] |  | 51 | 
15 | C=CC(=O)N1CCN2Cc3c(OC)cc(-c4c(O)cccc4F)c(Cl)c3OC[C@H]2C1 [Example 5, 1-[(12aR)-10-Chloro-9-(2-fluoro-6-hydroxyphenyl)-7-methoxy-3,4,12,12a-tetrahydro-6H-pyrazino[2,1-c][1,4]benzoxazepin-2(1H)-yl]prop-2-en-1-one] |  | 157 | 
16 | C=CC(=O)N1CCN2C(=O)c3c(O)cc(-c4c(O)cccc4F)c(Cl)c3OC[C@H]2C1 [Example 6, (12aR)-10-chloro-9-(2-fluoro-6-hydroxyphenyl)-7-hydroxy-2-(prop-2-enoyl)-1,2,3,4,12,12a-hexahydro-6H-pyrazino[2,1-c][1,4]benzoxazepin-6-one] |  | 103 | 
17 | C=CC(=O)N1CCN2Cc3c(-n4ccnc4)cc(-c4c(O)cccc4F)c(Cl)c3OC[C@H]2C1 [Example 15, 1-[(12aR)-10-Chloro-9-(2-fluoro-6-hydroxyphenyl)-7-(1H-imidazol-1-yl)-3,4,12,12a-tetrahydro-6H-pyrazino[2,1-c][1,4]benzoxazepin-2(1H)-yl]prop-2-en-1-one] |  | 1280 | 
18 | C=CC(=O)N1CCN2Cc3c(C#N)cc(-c4c(O)cccc4F)c(Cl)c3OC[C@H]2C1 [Example 16, (12aR)-10-Chloro-9-(2-fluoro-6-hydroxyphenyl)-2-(prop-2-enoyl)-1,2,3,4,12,12a-hexahydro-6H-pyrazino[2,1-c][1,4]benzoxazepine-7-carbonitrile] |  | 430 | 
19 | C=CC(=O)N1CCN2Cc3c(-n4cccn4)cc(-c4c(O)cccc4F)c(Cl)c3OC[C@H]2C1 [Example 17, 1-[(12aR)-10-Chloro-9-(2-fluoro-6-hydroxyphenyl)-7-(1H-pyrazol-1-yl)-3,4,12,12a-tetrahydro-6H-pyrazino[2,1-c][1,4]benzoxazepin-2(1H)-yl]prop-2-en-1-one] |  | 361 | 
20 | C=CC(=O)N1CCN2Cc3c(Cl)nc(-c4c(O)cccc4F)c(Cl)c3OC[C@H]2C1 [Example 68, 1-[(6aR)-1,4-Dichloro-3-(2-fluoro-6-hydroxyphenyl)-6a,7,9,10-tetrahydro-12H-pyrazino[2,1-c]pyrido[3,4-f][1,4]oxazepin-8(6H)-yl]prop-2-en-1-one] |  | 790 | 
21 | C=CC(=O)N1CCN2Cc3c(c(Cl)c(-c4c(O)cccc4F)[nH]c3=O)OC[C@H]2C1 [Example 69, (6aR)-4-Chloro-3-(2-fluoro-6-hydroxyphenyl)-8-(prop-2-enoyl)-2,6,6a,7,8,9,10,12-octahydro-1H-pyrazino[2,1-c]pyrido[3,4-f][1,4]oxazepin-1-one] |  | 618 | 

The remaining lines, values ahead:

Row | efflux ratio at 0.1 uM (MDR1 (Pgp) and BCRP) | IC50 (KRasG12C; [1]) [nM] | IC50 (KRasG12C; [2]) [nM] | Structure (SMILES)
22 | 0.8 | 24 |  | C=CC(=O)N1CCN2Cc3cc(Cl)c(-c4c(O)cccc4F)c(Cl)c3OC[C@H]2C1 (single isomer, unassigned) [Example 27]
23 | 1.8 | 42 |  | C=CC(=O)N1CCN2Cc3cc(F)c(-c4c(O)cccc4Cl)c(Cl)c3OC[C@H]2C1 (single isomer, unassigned) [Example 35]
24 | 0.8 | 32 |  | C=CC(=O)N1CCN2Cc3cc(F)c(-c4c(O)cccc4Br)c(F)c3OC[C@H]2C1 (single isomer, unassigned) [Example 59]
25 | 0.3 | 27.7 |  | C=CC(=O)N1CCN2Cc3cc(Cl)c(-c4c(C)cccc4O)c(F)c3OC[C@H]2C1 (single isomer, unassigned) [Example 61]
26 | 0.8 |  | 18.6 | C#Cc1cc2c(c(F)c1-c1c(O)cccc1Cl)OC[C@H]1CN(C(=O)C=C)CCN1C2 (single isomer, unassigned) [Example 76]
27 |  |  | 937 | C#Cc1cc2c(c(F)c1-c1c(O)cccc1Cl)OC[C@H]1CN(C(=O)C=C)CCN1C2 (single isomer, unassigned) [Example 77]
28 | 0.7 | 83 |  | C#Cc1cc2c(c(Cl)c1-c1c(O)cccc1F)OC[C@H]1CN(C(=O)C=C)CCN1C2 (single isomer, unassigned) [Example 80]
29 | 0.6 |  | 25 | C=CC(=O)N1CCN2Cc3cc(Cl)c(-c4c(O)cccc4Cl)c(F)c3OC[C@H]2C1 (single isomer, unassigned) [Example 84]
30 | 0.9 |  | 15 | C=CC(=O)N1CCN2Cc3cc(C#CC)c(-c4c(O)cccc4Cl)c(F)c3OC[C@H]2C1 (single isomer, unassigned) [Example 86]
31 | 0.6 | 54 |  | C#Cc1cc2c(c(C)c1-c1c(O)cccc1Cl)OC[C@H]1CN(C(=O)C=C)CCN1C2 (single isomer, unassigned) [Example 90]
32 | 0.7 | 53 |  | C=CC(=O)N1CCN2Cc3c(F)c(F)c(-c4c(O)cccc4Cl)c(Cl)c3OC[C@H]2C1 (single isomer, unassigned) [Example 92]
33 |  |  | 14 | C=CC(=O)N1CCN2Cc3cc(OC(F)F)c(-c4c(O)cccc4Cl)c(F)c3OC[C@H]2C1 (single isomer, unassigned) [Example 94]
34 |  | 11 |  | C=CC(=O)N1CCN2Cc3cc(OC(F)F)c(-c4c(O)cccc4Cl)c(Cl)c3OC[C@H]2C1 (single isomer, unassigned) [Example 98]
35 |  |  | 80 | C=CC(=O)N1CCN2Cc3cc(OC4CC4)c(-c4c(O)cccc4Cl)c(F)c3OC[C@H]2C1 (single isomer, unassigned) [Example 100]
36 |  | 28 |  | C=CC(=O)N1CCN2Cc3cc(C#CCN(C)C)c(-c4c(O)cccc4Cl)c(F)c3OC[C@H]2C1 (single isomer, unassigned) [Example 102]
37 |  | 83 |  | C=CC(=O)N1CCN2Cc3cc(COC)c(-c4c(O)cccc4Cl)c(Cl)c3OC[C@H]2C1 [Example 114, 1-[(12aR)-10-Chloro-9-(2-chloro-6-hydroxyphenyl)-8-(methoxymethyl)-3,4,12,12a-tetrahydro-6H-pyrazino[2,1-c][1,4]benzoxazepin-2(1H)-yl]prop-2-en-1-one]
